In patent publication US11596633B2, “SHP2 inhibitor compositions and methods for treating cancer” (Revolution Medicines, Inc., priority 2017, dated 2023):

What was measured:
H358 KRas G12C xenograft = format: in vivo; details: daily PO, Compound C 10 mg/kg, Trametinib 1 mg/kg, Cobimetinib 2.5 mg/kg, Ulixertinib 100 mg/kg
Protocol: The positive control, paclitaxel (30 mg/kg iv) in 5% ethanol, 5% cremophor EL, in 5% dextrose in deionized water was administered once every five days. Trametinib (1 mg/kg PO in 0.5% Methylcellulose+0.5% Tween 80) was administered by oral gavage daily. The study endpoint was defined as a mean tumor volume of 2000 mm^3 in the control group or 22 days, whichever came first. Mean tumor volume data are reported for all animals that remained on study.
(§1) The effects on tumor cell growth in vivo of another SHP2 inhibitor (Compound C) as a monotherapy or as a combination therapy with various Ras pathway inhibitors were evaluated in the NSCLC H358 KRas^G12C and MIA-Pa-Ca-2 xenograft models as described above in Example 1, except that the test article and vehicle formulation was (2% HPMC E-50, 0.5% Tween 80 in 50 mM Sodium Citrate Buffer, pH 4.0)+/− the inhibitor compound(s). […] Test compounds or vehicle control were administered by oral gavage daily. The study endpoint was defined as a mean tumor volume of 2000 mm^3 in the control group or 22 days post-dosing, whichever came first. Mean tumor volume data are reported for all animals that remained on study.

MIA-Pa-Ca-2 xenograft = assay: MIA-Pa-Ca-2 xenograft, Compound C with Abemaciclib (Example 8); format: in vivo, mice; details: Compound C 30 mg/kg PO, Abemaciclib 50 mg/kg
Description: Similar methods were used to evaluate efficacy of test articles in the pancreatic MiaPaca-2 KRas^G12C xenograft model. Balb/c nude mice (6-8 weeks old) were implanted with […] MiaPaca-2 tumor cells in 50% Matrigel subcutaneously in the flank. […] Administration of test articles and study design are as described above for H358 xenograft model.
as §1

p-ERK1/2 in H1792 cells = assay: p-ERK AlphaLisa SureFire; format: cell-based; details: H1792 cells (KRAS G12C)
Protocol: (§2) Cells were plated at ˜20×10^3 cells per well and following overnight incubation were washed with serum-free media. Cells were then incubated for one hour with increasing concentrations of the test article in serum-free media containing 0.2% BSA prior to termination of the assay and measurement of pERK levels in cellular lysates by AlphaLisa SureFire Ultra kit conducted according to the manufacturer's instructions.

p-ERK1/2 in Calu-1 cells = assay: p-ERK AlphaLisa SureFire; format: cell-based, human; details: Calu-1 cells (KRAS G12C)
Protocol: as §2

p-ERK1/2 in H358 cells = assay: p-ERK AlphaLisa SureFire; format: cell-based, human; details: H358 cells (KRAS G12C)
Protocol: as §2

[1] = system: phosphorylated RTKs in MDA-MB-231 cells; assay: Phospho-RTK array; format: cell-based; details: MDA-MB-231 (KRAS G13D), 24 hours; selumetinib 5 μM, Compound A 1 and 5 μM
Protocol: To determine the effects of test article(s) on levels of phosphorylated RTKs, MDA-MB231 cells were seeded in 6-well plates and incubated overnight in full growth medium. Cells were treated for 24 hours with selumetinib (5 μM) or Compound A (1 and 5 μM) or left untreated (DMSO control). Lysates were generated using the lysis buffer provided with the kit (Phospho-RTK Array; R&D systems) with inclusion of a protease inhibitor cocktail. To control for protein concentration, total protein levels were quantified using BCA reagent kit. The levels of phospho-RTK were determined according to the manufacturer's instructions.

[2] = system: RAS-GTP in NCI-H1838 cells; assay: RAS-GTP pulldown (Raf-RBD); format: cell-based; details: NCI-H1838 (NF1 LOF), MEK inhibition by trametinib
Protocol: (§3) To determine the effects of small molecules on levels of activated RAS-GTPase, cell lines of interest were cultured under standard 2D culture conditions. Cells were seeded and following overnight incubation incubated at 37° C. with vehicle (DMSO) or test article(s). After an appropriate incubation period, cells were washed and cell lysis buffer added to prepare a cell lysate. The levels of Ras-GTP in the lysates were determined using affinity purification of a Raf-RBD (Ras binding domain of Raf)/GTP-Ras complex. In one approach, the Pierce Active Ras Pulldown and Detection Kit was used. Briefly, clarified lysates (500 μg total protein, quantified by BCA) were mixed with glutathione resin, which had been preincubated with GST-Raf-RBD. The mixture was vortexed and incubated at 4° C. for 1 hour with gentle rocking. The resin was washed three times with lysis buffer and bound Ras-GTP eluted by addition of 2× reducing sample buffer. Eluted proteins were separated by SDS-PAGE using a 4-15% Tris-glycine gel (BioRad). Proteins were transferred to a nitrocellulose membrane for western blot using an anti-Ras antibody (Thermofisher, 1:200) and a Licor IRDye-800 anti-mouse secondary antibody (1:20,000). The Licor Odyssey CLx was used for visualization.
as §3, with “resin” for “resin,”

NCI-H358 xenograft = assay: NCI-H358 xenograft, alone and with trametinib (Example 7); details: trametinib 1 mg/kg
Protocol: The effects of a SHP2 inhibitor on tumor cell growth in vivo were evaluated in the NSCLC H358 xenograft model using female athymic nude mice (6-8 weeks old). Mice were implanted with H358 tumor cells in 50% Matrigel (1×10^7 cells/animal) subcutaneously in the flank. Once tumors reached an average size of 200 mm^3 mice were randomized to treatment groups and administration of test article or vehicle (50 mM acetate buffer, pH 4.6 containing 10% captisol, unless otherwise indicated) initiated. […] Body weight and tumor volume (using calipers) was measured every other day until study endpoints.

Compound: CC(C)Nc1cc(-c2c[nH]c(C(=O)N[C@H](CO)c3cccc(Cl)c3)c2)c(Cl)cn1 [Ulixertinib]
- tumor growth as a single agent compared to vehicle control (H358 KRas G12C xenograft): significant tumor growth inhibition

Compound: CCN1CCN(Cc2ccc(Nc3ncc(F)c(-c4cc(F)c5nc(C)n(C(C)C)c5c4)n3)nc2)CC1 [Abemaciclib]
- tumor growth as a single agent compared to vehicle control (MIA-Pa-Ca-2 xenograft): significant tumor growth inhibition

Compound: C=CC(=O)N1CC(N2CCN(C(=O)CNc3cc(C4(C)CC4)c(Cl)cc3O)CC2)C1 [ARS-853, reference compound]
- inhibition of p-ERK1/2 levels (p-ERK1/2 in H1792 cells): sensitive
- inhibition of p-ERK1/2 levels (p-ERK1/2 in Calu-1 cells): sensitive
- inhibition of p-ERK1/2 levels (p-ERK1/2 in H358 cells): sensitive

Compound: Cn1cnc2c(F)c(Nc3ccc(Br)cc3Cl)c(C(=O)NOCCO)cc21 [selumetinib, Selumetinib, reference compound]
- feedback-driven p-RTK hyperactivation [1]: caused feedback-driven p-RTK hyperactivation

Compound: O=C(c1ccc(F)c(F)c1Nc1ccc(I)cc1F)N1CC(O)([C@@H]2CCCCN2)C1 [Cobimetinib]
- tumor growth as a single agent compared to vehicle control (H358 KRas G12C xenograft): significant tumor growth inhibition

Compound: CC(=O)Nc1cccc(-n2c(=O)n(C3CC3)c(=O)c3c(Nc4ccc(I)cc4F)n(C)c(=O)c(C)c32)c1 [Trametinib, reference compound]
- feedback-driven RAS-GTP accumulation [2]: caused feedback-driven RAS-GTP accumulation
- tumor growth as a single agent compared to vehicle control (H358 KRas G12C xenograft): significant tumor growth inhibition
- tumor growth as compared to the vehicle control (NCI-H358 xenograft; single agent, Compound B 10 and 30 mg/kg): significant tumor growth inhibition
- tumor growth inhibition, TGI (NCI-H358 xenograft): 79%
